Values joined by “and” are separate entries in the source; they are usually repeats but may differ in a detail not shown here. Equal values may be shown once.
How the values were obtained:
[1] = tested on: angiogenic response induced by VEGF; assay: In vivo chamber implant angiogenesis assay, VEGF-stimulated; design: species or system FVB mice
Procedure: (§1) Porous perfluoro-alkoxy-Teflon® chambers containing PBS or VEGF (2 μg/mL) in 0.5 ml of 0.8% w/v agar (containing heparin, 20 U/mL) were implanted subcutaneously in the flank of FVB mice. Animals were treated orally either with Compound A at 12.5, 25 and 50 mg/kg once a day or vehicle (5 ml/kg) starting 4-6 hours before implantation of the chambers and daily for 3 days. VEGF induces the growth of vascularized tissue around the chamber. The angiogenic response can be quantified by measuring the weight and Tie-2 levels of the tissue. Animals were sacrificed 4 days after the implantation. Values are mean±SEM. *p<0.05, statistical significance of inhibition. The total number of animals per group is given in brackets.
(§2) Sterile tissue chambers made of perfluoro-alkoxy-Teflon® were filled with 500 μl molten 0.8% w/v agar containing 20 U/mL heparin (Novo Nordisk A/S, Bagsvaerd, Denmark) with or without growth factor (dog VEGF 2 μg/mL or phosphate buffer saline (PBS/O)). The chamber was implanted aseptically under isoflurane anesthesia through a small incision on the back of the animal and the incision was closed by wound clips. Animals were treated orally either with Compound A at 12.5, 25 or 50 mg/kg once a day formulated in a vehicle of NMP/PEG300 (10/90, V/V) or vehicle alone starting 4-6 hours before implantation of the chambers and daily for three days. VEGF induces the growth of vascularized tissue around the chamber. The angiogenic response can be quantified by measuring the weight and Tie-2 levels of the tissue.
(§3) Four days after implantation, animals were sacrificed using CO2. The chambers were recovered from the animal and the vascularized tissue that had formed around each implant was carefully removed and weighed. Tissue samples were homogenized for 30 sec at 24000 rpm (Ultra Turrax T25) after addition of 1 mL of Ripa buffer (Tris-HCl 50 mM, NaCl 120 mM, EDTA 1 mM, EGTA 6 mM, NP-40 1%, Sodium fluoride 20 mM, Pefabloc SC 1 mM, Sodium vanadate 1 mM). The samples were then centrifuged for 1 h at 7000 rpm. The supernatant was filtered using a 0.45 μm syringe filter (Acrodisc® GF, Gelman Sciences, Ann Arbor, Mich., USA) to avoid fat contamination.
Tie-2 is a receptor tyrosine kinase which is specifically expressed on endothelial cells. For Tie-2 level determination, Nunc (Naperville, Ill.) Maxisorp 96-well plates were coated over night at 4° C. with the capture antibody, anti-Tie-2 AB33 (UBI, Hauppauge, N.Y.), with a concentration of 2 μg/mL (100 μL/well). Wells were washed in TPBS (Tween 80 PBS) and blocked by incubating with 3% Top-Block (Juro, Lucerne, Switzerland) for 2 hours at room temperature. 300 μg of protein lysates were added and incubated for 2 hours, and the wells washed three times before addition of a goat anti-mouse Tie-2 antibody (R&D Systems, Minneapolis, Minn.; 0.5 μg/mL) and an alkaline phosphate conjugated anti-goat antibody (Sigma, St. Louis, Mo.; diluted 1:6,000) in TPBS+0.1%Top-Block for 1 hour at room temperature. Tie-2 antibody complexes were detected after incubation with p-nitrophenyl phosphate substrate (Sigma). The absorbance of the spectro-photometric reaction was determined with an ELISA reader at 405 nm. Recombinant human extracellular domain of Tie-2 fused to the constant regions of human IgG1 (sTie-2Fc) dissolved in RIPA buffer was used as standard in a concentration range from 0.1 to 300 ng/well
(§4) Four days after the subcutaneous implantation of the VEGF containing chambers, VEGF induced the formation of a thick layer of neovascularised tissue (called capsule) that grew around the implant. PBS containing chambers induced a much thinner layer of tissue with very few blood vessels around control chamber. Tissue formation can be quantified by measuring the weight and the angiogenic response can be quantified by measuring the Tie-2 levels of the capsule. An ELISA assay can quantitatively measure endothelial cells in tissue extracts to evaluate the vascularization of the tissue. […]

[2] = tested on: VEGF-induced vessel leakage; assay: In vivo VEGF induced permeability assay (Miles assay); design: species or system FVB mice; settings: 3, 6.25, 12.5 and 25 mg/kg p.o., 5 hours before VEGF injection in the ear
Procedure: FIG. 3: Effects of Compound A on VEGF induced permeability in vivo. FVB mice pre-treated with Compound A (3, 6.25, 12.5 and 25 mg/kg, p.o., for 5 h) were injected i.v. with Evans blue and challenged 30 minutes later with VEGF injection in the ear. Mice were then sacrificed and VEGF-mediated vessel leakage is quantified by measurement of the area (mm^2) of dye that extravasated at the site of VEGF injection using pixel-based threshold in computer-assisted image analysis software. Values are mean±SEM. *p<0.05, statistical significance of inhibition. The total number of animals per group is given in brackets.
200 μl of Evans blue (0.5%) was injected into the tail vein of female FVB mice. Thirty minutes following administration of the dye, the mice were anaesthesized (3% Isoflurane in O2, Forene®, Abbott AG, Cham, Switzerland) and then placed on an operating field maintained at a temperature of 39° C. Their ears were extended over a steel cone fitted with a double-sided sticker to expose the dorsal surface. […] VEGF-mediated vessel leakage is quantified by measurement of the area (mm^2) of dye that extravasated at the site of VEGF injection using pixel-based threshold in a computer-assisted image analysis software (KS-400 3.0 imaging system, Zeiss, Germany). […]

[3] = tested on: basal induced angiogenesis; assay: In vivo chamber implant angiogenesis assay, base line (no GF stimulation, PBS control chamber); design: species or system FVB mice
Procedure: as §1, with “PBS” for “PBS or VEGF (2 μg/mL)”, “at” for “at 12.5, 25 and”, “Basal” for “VEGF induces the growth of vascularized”, “tissue formed” for “tissue”, “chamber was carefully removed and” for “chamber. The angiogenic response can be quantified by measuring”, “were quantified.” for “of the tissue.”
as §2, §3
Tie-2 is a receptor tyrosine kinase which is specifically expressed on endothelial cells. For Tie-2 level determination, Nunc (Naperville, Ill.) Maxisorp 96-well plates were coated over night at 4° C. with the capture antibody, anti-Tie-2 AB33 (UBI, Hauppauge, N.Y.), with a concentration of 2 μg/mL (100 μL/well). Wells were washed in TPBS (Tween 80 PBS) and blocked by incubating with 3% Top-Block (Juro, Lucerne, Switzerland) for 2 hours at room temperature. […] Tie-2 antibody complexes were detected after incubation with p-nitrophenyl phosphate substrate (Sigma). The absorbance of the spectro-photometric reaction was determined with an ELISA reader at 405 nm. […]
as §4, with “PBS containing chambers induced a much thinner layer of tissue with very few blood vessels around control chamber.” left out

BN472 tumors [4] = assay: Efficacy experiment with orthotopic BN472 rat mammary carcinoma model; settings: qd, p.o.; for T/C (%): 0.5% Methylcellulose suspension
From the text: BN472 tumors were established by orthotopic implantation of tumor fragments into the mammary fat pad of BN rats. Female Brown-Norway (BN) rats (obtained from Charles River (France)) weighing 160-180 g (6-7 weeks of age) were used for all experiments. They were identified by tail markings and kept in groups of 3-5 animals under normal conditions with access to food and water ad libitum. Tumor fragments of 25 mm^3 were taken from the cortex region and were transplanted orthotopically under the fat pad of the fourth left mammary gland of the recipients. For efficacy experiments, treatments were always initiated when the mean tumor volume in each group reached 400-500 mm^3.

BN472 tumors [5] = assay: Tumor interstitial fluid pressure (IFP) by radio-telemetry; type: in vivo, Brown-Norway (BN) rats
Procedure: FIG. 4: Effects of Compound A on tumor interstitial fluid pressure. (A) Orthotopic BN472 tumor bearing rats containing a pressure sensing catheter inserted in the tumor were treated with Compound A at 25 mg/kg (n=6; initial IFP: 25.4 mmHg±2.8), or with the vehicle control (n=9; 18.2 mmHg±1.5) for 3 consecutive days. The IFP was recorded for 72 h and variations (delta towards initial values) plotted (gray lines: untreated animals; dark line: applied treatment as indicated in the graph). Data presented are means±SEM. (B) Same as in A except that additional animals were treated orally with a lower dose of 12.5 mg/kg Compound A (n=3; initial IFP: 18.8 mmHg±2.3; gray line). Recording was extended for 3 additional days post last treatment to assess recovery patterns. The arrows represent the administration schedule. Gray bars represent night time.
The IFP of BN472 tumors was measured in conscious, freely moving rats maintained in their home cage using an adapted fully implantable miniaturized radio-telemetry system (Data Sciences Int., St. Paul, Minn.) composed of 4 basic components: an implantable transmitter (AM unit, model TLM-PAC10, volume: 1.1 cc, weight: 1.4 g) which continuously senses and transmits information from within the animal, one receiver located under the home cage, a matrix interface for coordination of signals and a computer-based data acquisition system for collection, analysis and storage of data. The body of the transmitter was implanted s.c. under aseptic conditions into the flank of the animal under isofluorane anaesthesia (3% Isoflurane in O2). Briefly, once animals are fully unconscious, they are placed on a heated blanket and the abdominal area is shaved. The ventral surface of the abdomen is then prepared by swabbing the skin with povidone iodine surgical scrub. With the animal supine, a skin incision of approximately 30 mm is made along the midline of the abdomen and the skin separated from the muscle wall building an air pocket. The sterile transmitter is then positioned in this pocket and the sensing catheter tunneled subcutaneously towards the tumor site (lowest mammary fat pad). The sensing pressure catheter was inserted into the body of the tumor (4-5 mm depth) and secured at the site of entry with tissue adhesive (Vetbond; 3M Company). Fluid communication between the tip of the pressure catheter and the tumor was tested by gentle compressing and decompressing the tubing connected to the telemetry transducer using a clamp. […] However, in most of the implanted tumors, intra-tumoral IFP pulse pressure waveform curves could be recorded unstintingly with high resolution confirming even more strongly the adequate sensing catheter placement. The total operation time for the implantation of the telemetry transmitter was about 20 min. Postoperative analgesia was provided using Buprenorphin (Temgesic®, Reckitt and Colman) injection of 0.05 mg/kg s.c. twice, immediately after surgery and 8-12 h later. Following surgery, the unconscious animal is placed on soft material in a clean cage with water ad libitum. An external heat lamp is used to maintain body temperature. The animals were allowed a period of 2 days to recover from surgery before starting acquisition of any physiological data. IFP was recorded continuously in all animals over 24 hours up to 5 days, and analyzed in 1-min cyclic runs for 10 sec, with a 500-Hz sampling rate. Values presented are means over 15 min periods.

[6] = 12.5 mg/kg p.o. once a day, exp. 2, mean ± SEM
[7] = 25 mg/kg p.o. once a day, exp. 2, mean ± SEM
[8] = 50 mg/kg p.o. once a day, exp. 1, mean ± SEM
[9] = 50 mg/kg p.o. once a day, exp. 2, mean ± SEM
[10] = 50 mg/kg, chamber without growth factor

In the case of `Cc1nc(NC(=O)N2CCC[C@H]2C(N)=O)sc1-c1ccnc(C(C)(C)C(F)(F)F)c1` [Compound A, (S)-Pyrrolidine-1,2-dicarboxylic acid 2-amide 1-({4-methyl-5-[2-(2,2,2-trifluoro-1,1-dimethyl-ethyl)-pyridin-4-yl]-thiazol-2-yl}-amide)], the “% inhibition VEGF-stimulated, Capsule weight” value ([1]; 12.5 mg/kg p.o. once a day, exp. 1, mean ± SEM) is reported as 64 ± 33 (3) %, the “% inhibition VEGF-stimulated, Capsule weight” value [1, 6] is reported as 74 ± 24 (4) % and the “% inhibition VEGF-stimulated, Total Tie-2” value [1, 6] is reported as 58 ± 22 (4) %. For the same compound, the “% inhibition VEGF-stimulated, Capsule weight” value ([1]; 25 mg/kg p.o. once a day, exp. 1, mean ± SEM) was 84 ± 5 * (3) %, the “% inhibition VEGF-stimulated, Capsule weight” value [1, 7] was 106 ± 28 * (4) % and the “% inhibition VEGF-stimulated, Total Tie-2” value [1, 7] was 113 ± 38 * (4) %. For the same compound, the “Tie-2 levels of the capsule, VEGF chamber” value ([1]; 50 mg/kg given daily) was “returned to the baseline or even below”, the “% inhibition VEGF-stimulated, Capsule weight” value [1, 8] was 88 ± 12 * (4) % and the “% inhibition VEGF-stimulated, Capsule weight” value [1, 9] was 121 ± 11 * (6) %. For the same compound, the “% inhibition VEGF-stimulated, Total Tie-2” value [1, 9] was 145 ± 9 * (6) %, the “angiogenic response induced by VEGF (weight and Tie-2 level of the capsule)” value ([1]; once a day at 12.5, 25 and 50 mg/kg in solution) was “inhibited significantly” and the “abrogation of VEGF-induced Evans blue dye extravasation” value [2] was “up to 90%”. For the same compound, the “% inhibition Base line (no GF stimulation), Capsule weight” value [3, 8] was 14 ± 11 (2) %, the “% inhibition Base line (no GF stimulation), Capsule weight” value [3, 9] was 12 ± 10 (3) % and the “% inhibition Base line (no GF stimulation), Total Tie-2” value [3, 9] was 29 ± 9 * (3) %. The “Tie-2 levels, basal induced angiogenesis” value [3, 10] was “significantly reduced”, the “tissue weight, basal induced angiogenesis” value [3, 10] was “did not affect tissue weight” and the “% change of body weight corrected” value (BN472 tumors [4]; 20 mg/kg) was 1.2 ± 0.5%. For the same compound, the “Mean fold change in tumor growth” value (BN472 tumors [4]; 20 mg/kg) was 4.6 ± 0.8, the “Survival (Survivors/total)” value (BN472 tumors [4]; 20 mg/kg) was 5/5 and the “Δ Body weight (mean g ± SEM)” value (BN472 tumors [4]; 20 mg/kg) was 4.0 ± 1.1 g. For the same compound, the “Δ tumor volume (mean mm^3 ± SEM)” value (BN472 tumors [4]; 20 mg/kg) was 1725 ± 283 * mm^3, the “T/C (%)” value (BN472 tumors [4]; 20 mg/kg) was 36% and 36 * % and the “% change of body weight corrected” value (BN472 tumors [4]; 40 mg/kg) was −1.8 ± 0.5%. The “Mean fold change in tumor growth” value (BN472 tumors [4]; 40 mg/kg) was 3.3 ± 0.2, the “Survival (Survivors/total)” value (BN472 tumors [4]; 40 mg/kg) was 5/5 and the “Δ Body weight (mean g ± SEM)” value (BN472 tumors [4]; 40 mg/kg) was -2.5 ± 0.9 g. The “Δ tumor volume (mean mm^3 ± SEM)” value (BN472 tumors [4]; 40 mg/kg) was 1108 ± 198 * mm^3, the “T/C (%)” value (BN472 tumors [4]; 40 mg/kg) was 23% and 23 * % and the “IFP pattern over three days of treatment compared with 25 mg/kg” value (BN472 tumors [5]; 12.5 mg/kg) was “very similar pattern”. For the same compound, the “time post last treatment at which IFP returned to initial values” (BN472 tumors [5]; 12.5 mg/kg) was no more than 60 h, the “time post last treatment without normalization of IFP diminution” value (BN472 tumors [5]; 25 mg/kg) was greater than 72 h and the “reduction in IFP” value (BN472 tumors [5]; 25 mg/kg, 4 hours post treatment) was “clear and significant reduction”. The “IFP change at max after first treatment” value (BN472 tumors [5]; 25 mg/kg, 22 hours post dosage) was −25%, the “IFP inhibition after second treatment” value (BN472 tumors [5]; 25 mg/kg, second treatment at time point 24 hours) was −36% and the “IFP inhibition after third treatment” value (BN472 tumors [5]; 25 mg/kg, third treatment, sustained for 48 hours) was −43%.
